Reference: patent publication US11896678B2, “Compositions and methods for treatment of peroxisome proliferator-activated receptor gamma (PPARG) activated cancer” (THE BROAD INSTITUTE, INC., priority 2017, dated 2024)

Legend:
[1] = biological target: T1, PPARG ligand-binding domain - NCoR/NCOR1 corepressor peptide (Homo sapiens, UniProt P37231); assay: TR-FRET corepressor assay, NCoR/NCOR1 peptide; format: biochemical; conditions: data not shown
T1 construct: purchased ThermoFisher Scientific
T1 sequence (P37231 238-503 limits assumed): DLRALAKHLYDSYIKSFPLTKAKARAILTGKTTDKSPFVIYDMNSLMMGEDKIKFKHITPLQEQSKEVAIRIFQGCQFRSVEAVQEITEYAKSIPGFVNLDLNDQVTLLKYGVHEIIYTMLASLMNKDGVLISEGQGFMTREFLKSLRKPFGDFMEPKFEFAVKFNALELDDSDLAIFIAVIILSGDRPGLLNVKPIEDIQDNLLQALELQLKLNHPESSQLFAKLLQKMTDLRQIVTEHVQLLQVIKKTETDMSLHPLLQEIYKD
Method: (§1) To evaluate inverse-agonism, a TR-FRET PPARG co-repressor assay (ThermoFisher) that measures recruitment of a fluorescent NCOR1 or NCOR2 corepressor peptide to the PPARG ligand-binding domain was used (ThermoFisher).
In addition to the PPARG-NCOR2 interaction assay described above, interactions between PPARG and a peptide from the corepressor NCOR1 were measured.

UM-UC-9 cells [2] = assay: Direct cell counting dose-response proliferation assay; format: cell-based, human
Method: To determine whether PPARG modulators affect the proliferation and/or viability of PPARG-activated bladder cancer cell lines, a direct cell counting-based assay was performed. This assay likely avoids potential artifacts associated with the use of an ATP content-based assay, given that PPAR modulators are known to regulate cellular metabolic activity. […] These IC50 values align well with the calculated IC50s from both the cell-based reporter gene assay (FIG. 8A) and the biochemical corepressor assay (FIG. 8D).
(§2) Proliferation Assays: To enable cell-counting experiments, cell lines were transduced with a lentiviral vector encoding nuclear-targeted GFP, TagGFP2-H2B (Evrogen), and stable pools generated following selection for puromycin resistance. Cell lines were maintained for at least 7 days following selection prior to expansion and seeding into 96- or 384-well plates for further analysis. For kinetic proliferation assays, 96-well plates (n 1% 4 per condition) were imaged and counted every two hours using IncuCyte Zoom (Essen BioScience). Media and compounds were replaced approximately every 3-4 days. For endpoint assays to measure dose-response, cells were plated in 384-well plates, dosed with compound, and upon reaching approximately 70% to 90% confluence in control wells, cells were either counted using fluorescence imaging (Incu-Cyte Zoom) or incubated with CyQuant (Thermo Fisher) at the indicated time and plates were read with a fluorescent plate reader.

[3] = biological target: T2, PPARG ligand-binding domain - TRAP220/MED1 coactivator peptide (Homo sapiens, UniProt P37231); assay: TR-FRET coactivator assay, TRAP220/MED1 peptide; format: biochemical
T2 construct: purchased ThermoFisher Scientific
T2 sequence (P37231 238-503 limits assumed): T1 sequence (P37231 238-503 limits assumed)

PPARG [4] = biological target: T3, PPARG (Homo sapiens, UniProt P37231); assay: RT112/84 FABP4-NLucP reporter gene assay, antagonist mode with rosiglitazone; format: cell-based; conditions: in the presence of rosiglitazone
T3 construct: endogenous in cells; host or cells: RT112/84 bladder cancer cells (FABP4-NLucP knock-in clone)
T3 sequence (P37231 1-477 isoform P37231-2): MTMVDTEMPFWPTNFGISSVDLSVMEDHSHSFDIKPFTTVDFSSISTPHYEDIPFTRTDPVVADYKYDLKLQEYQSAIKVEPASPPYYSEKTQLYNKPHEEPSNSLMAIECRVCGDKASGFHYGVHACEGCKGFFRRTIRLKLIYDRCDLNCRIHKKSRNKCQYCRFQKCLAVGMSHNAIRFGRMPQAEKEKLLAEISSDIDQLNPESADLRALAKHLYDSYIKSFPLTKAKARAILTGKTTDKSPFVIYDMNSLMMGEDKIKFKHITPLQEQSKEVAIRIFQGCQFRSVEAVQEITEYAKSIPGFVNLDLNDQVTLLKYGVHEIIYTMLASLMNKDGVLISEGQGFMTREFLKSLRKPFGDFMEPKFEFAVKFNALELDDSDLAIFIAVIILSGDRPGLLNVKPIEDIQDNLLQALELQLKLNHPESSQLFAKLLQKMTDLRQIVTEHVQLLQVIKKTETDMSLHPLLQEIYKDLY
Method: (§3) RT112-FABP4-NLucP Reporter Gene Assay: Reporter cell line was generated by engineering NanoLuc gene into the 3′ UTR of FABP4 in RT112/84 cells using CRISPR/Cas9 guided genome engineering. Single cell clones were generated and the clone with the widest dynamic range selected for use. Assays were performed by seeding 384-well plates with ˜10,000 cells per well in MEMalpha containing 10% FBS and dosing compounds at indicated concentration using HP D300 digital dispenser (HP/Tecan). 18-24 hours after dosing with compound, cells were assayed using NanoGlo Luciferase Assay Reagent (Promega Madison, WI) and plates were read using EnVision Multilabel Reader (PerkinElmer Waltham, MA).

UM-UC-9 cells [5] = assay: Kinetic proliferation assay (IncuCyte), percent of DMSO control; format: cell-based, human; conditions: 100 nmol/L; DMSO control at 50% confluency
From the text: This assay was expanded to include an additional 8 representative bladder cancer cell lines, including cell lines with PPARG amplification, RXRA p.S427F mutation, activated gene signature, and control cell lines with low level expression of PPARG and target genes. […] Representative data for the UM-UC-9 cell line are shown in FIG. 6B, and is tabulated for the tested bladder cancer cell lines in Table 1. […] Similar results were obtained with these cell lines in parallel studies using clonogenic assays to quantify colony-forming ability (FIG. 10).
as §2, with “Cell lines were maintained for at least 7 days following selection prior to expansion and seeding into 96- or 384-well plates for further analysis.” left out, “Media and compounds were replaced approximately every 3-4 days.” left out

PPARG [6] = biological target: T3, PPARG; assay: RT112/84 FABP4-NLucP reporter gene assay, unstimulated; format: cell-based
From the text: Next, a PPARG reporter cell line was engineered to enable higher throughput assays to evaluate PPARG transactivation. Briefly, a destabilized NanoLuc luciferase reporter gene was inserted into the 3′-UTR of the FABP4 gene in the RT112/84 bladder cancer cell line using CRISPR/Cas9 mediated homology-directed repair (FIG. 4A).
as §3

[7] = biological target: T4, PPARG ligand-binding domain - SMRT/NCOR2 corepressor peptide (Homo sapiens, UniProt P37231); assay: TR-FRET corepressor assay, SMRT/NCOR2 peptide; format: biochemical
T4 construct: purchased ThermoFisher Scientific
T4 sequence (P37231 238-503 limits assumed): T1 sequence (P37231 238-503 limits assumed)
Method: as §1
To determine effects on interactions between PPARG and coregulators, PPARG modulators were tested in two TR-FRET biochemical interaction assays for agonism and inverse-agonism. Agonism was quantitated using a coactivator assay, which measured the interaction between the PPARG ligand-binding domain and a fluorescently-labeled peptide from TRAP220/MED1. […] To evaluate inverse-agonism biochemically, ligand-dependent interactions were measured between PPARG ligand-binding domain and corepressor peptides from NCoR/NCOR1 and SMRT/NCOR2.

induced signal [1]: 2.5 fold | effect in coactivator assay [3]: minimal effect | effect on unstimulated reporter (PPARG [6]): minimal detectable effect | increase in signal [7]: 1.7 fold
Compound: O=C(Nc1ccccc1)c1cc([N+](=O)[O-])ccc1Cl [GW9662]
effect on cell proliferation compared with DMSO control (UM-UC-9 cells [2]): no significant effects | effect on agonist-induced signal (PPARG [4]): decreased the agonist-induced signal back to the original baseline | effect on proliferation relative to control (UM-UC-9 cells [5]): no effect
